In US20240400551A1, “NEK7 INHIBITORS” (HALIA THERAPEUTICS, INC., priority 2021, published 2024):

System: IL-1β release from THP-1 cells
Assay: IL-1β release assay
Assay type: cell-based
Conditions: Homo sapiens; PMA-treated THP-1 cells, 250 ng/mL LPS then 20 μM nigericin; cleaved IL-1β in media
Procedure: Approximately 1.5 million THP-1 cells were plated in each well of a 6-well TC plate and incubated with 40 nM PMA in RPMI (10% FBS, 1% Penstrep) for 24 hours. The media was then removed and cells were rested in RPMI (10% FBS, 1% Penstrep) for 24 hours after which time the media was removed and cells were pre-treated for 2 hours with various concentrations of compounds of interest (typically serial 3-fold dilution in RPMI+5% FBS, concentrations ranging from 1 μM to 0.5 nM) in RPMI (5% FBS). The media was again removed and cells were incubated with 250 ng/mL LPS and compounds of interest (concentrations as above) in RMPI (5% FBS) for 2 hours. The media was removed for a last time and cells were incubated with 20 μM nigericin and compounds of interest (concentrations as above) in Opti-MEM for 30 minutes. Cell media was then collected and the amount of cleaved IL-1β was determined using a JESS instrument (Protein Simple) and standard protocols. Cleaved Il-1β antibody was obtained from Cell Signaling (catalogue #83186S) and was used at 1:20 dilution in antibody diluent 2. Protein Simple 1× anti-Rabbit HRP secondary antibody was used along with Protein Simple luminol and peroxide for chemiluminescent detection. Primary antibody incubation time was increased from 30 minutes to 60 minutes.

IC50: > 1 µM
Compound: O=C(Nc1ccc(Oc2ccnc3[nH]cc(Cl)c23)cc1F)Nc1cc(C2CC2)nn1-c1ccccc1 [Compound I-11, 1-(4-((3-chloro-1H-pyrrolo[2,3-b]pyridin-4-yl)oxy)-2-fluorophenyl)-3-(3-cyclopropyl-1-phenyl-1H-pyrazol-5-yl)urea]
